# Patent US4396598A, “Triiodoisophthalamide X-ray contrast agent” (Mallinckrodt, Inc., priority 1982, dated 1983)
# Tests used:
# [1] = Radiographic observations, lateral radiograph of head and thorax in rat after intracisternal injection; assay type: in vivo; details: male rat, 137 mg I/kg (40% I solution), immediately after administration
# Swiss mice = assay: Acute Intravenous Toxicity in Mice; assay type: in vivo; details: i.v., 40% I, seven day observation
# Method: (§1) The following pharmacological studies were conducted on N,N'-bis(2,3-dihydroxypropyl)-5-N-(2-hydroxyethyl)glycolamido-2,4,6-triiodoisophthalamide (PRODUCT), prepared by the method of Example 1.
# A solution of the PRODUCT (40% I) was injected into the lateral tail vein of young adult male and female Swiss mice at a rate of 1 ml/min. […]
# [2] = Radiographic observations, whole body radiographs in mouse after intravenous administration; assay type: in vivo; details: male mouse, i.v. (lateral tail vein), 10,000 mg I/kg (40% I solution), immediately and 5 minutes after administration
# Method: A male mouse (23 g) was anesthetized with sodium pentobarbital (40 mg/kg, i.p.; Nembutal®, Abbott Laboratories). The N,N'-bis(2,3-dihydroxypropyl)-5-N-(2-hydroxyethyl)glycolamido-2,4,6-triiodoisophthalamide prepared by method of Example 1, was administered at a dose of 10,000 mg I/kg (40% I solution) via a lateral tail vein of the mouse at a rate of 1 ml/minute.
# [3] = Acute Intracisternal Toxicity in Rats; assay type: in vivo, Sprague Dawley rats; details: rat, in vivo, concentration 450, two day observation, 95% confidence limits 1,853-2,936
# Method: as §1
# (§2) The technique described by Melartin, et al. (Invest. Radiol. 5: 13-21, 1970) was utilized to evaluate lethal effects of a solution of the PRODUCT after injection into cerebrospinal fluid at the cisterna magna. Young adult male Sprague Dawley rats were used. After dosing, the animals were housed individually and observed for immediate reactions and periodically for a two day observation period. The LD50 value was calculated by the method of Litchfield and Wilcoxin (J. Pharmacol. Exp. Therap. 96: 99-113, 1949) with the following results: […]
# Sprague Dawley rats = assay: Acute Intracisternal Toxicity in Rats; assay type: in vivo; details: concentration 450, two day observation, 95% confidence limits 874-1,385
# Method: as §1, §2
compound,measurement,setting,value
"O=C(NCC(O)CO)c1c(I)c(C(=O)NCC(O)CO)c(I)c(N(CCO)C(=O)CO)c1I (centres unmarked) [PRODUCT, N,N'-Bis(2,3-dihydroxypropyl)-5-N-(2-hydroxyethyl)glycolamido-2,4,6-triiodoisophthalamide]",visualization on lateral radiograph of the head and thorax,[1],"good visualization of the cisterna magna, basal cisterns, and cervical subarachnoid space"
same,NUMBER OF MORTALITIES/NUMBER DOSED,"Swiss mice; 18,500 mg I/kg (39,220 mg/kg)",0/8
same,NUMBER OF MORTALITIES/NUMBER DOSED,"Swiss mice; 20,000 mg I/kg (42,400 mg/kg)",5/8
same,NUMBER OF MORTALITIES/NUMBER DOSED,"Swiss mice; 21,500 mg I/kg (45,580 mg/kg)",10/10
same,LD50,Swiss mice; mice,"about 20,000 mg I/kg"
same,opacification on whole body radiographs,[2],opacification of the liver and cardiovascular and renal excretory systems
same,LD50 at 48 h,[3],2330 mg/kg
same,LD50 (95% Confidence Limits),Sprague Dawley rats,"1,100 mg I/kg"
